We go through nine compounds from patent US20060205771A1, “Caspase inhibitors as anticancer agents” (priority 2002, published 2006).

One data set has as its target T1, Caspase-1 (Homo sapiens, UniProt P29466).
T1 sequence (P29466 120-297 limits assumed): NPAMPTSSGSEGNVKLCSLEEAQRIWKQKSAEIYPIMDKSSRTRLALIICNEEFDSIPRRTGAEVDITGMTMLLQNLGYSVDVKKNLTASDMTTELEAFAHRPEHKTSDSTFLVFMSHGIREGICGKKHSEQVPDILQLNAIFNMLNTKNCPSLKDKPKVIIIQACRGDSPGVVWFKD
T1 sequence (P29466 317-404 limits assumed): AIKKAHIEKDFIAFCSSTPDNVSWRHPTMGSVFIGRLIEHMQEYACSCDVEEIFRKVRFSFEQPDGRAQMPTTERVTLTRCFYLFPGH
To be noted: cited from earlier work.

The next data set has as its target T2, caspase-3 (Homo sapiens, UniProt P42574).
T2 sequence (P42574 29-175 limits assumed): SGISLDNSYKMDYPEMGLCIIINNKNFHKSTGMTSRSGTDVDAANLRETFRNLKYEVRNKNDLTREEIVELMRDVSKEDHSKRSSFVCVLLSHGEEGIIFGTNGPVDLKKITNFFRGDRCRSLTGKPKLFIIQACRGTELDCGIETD
T2 sequence (P42574 176-277 limits assumed): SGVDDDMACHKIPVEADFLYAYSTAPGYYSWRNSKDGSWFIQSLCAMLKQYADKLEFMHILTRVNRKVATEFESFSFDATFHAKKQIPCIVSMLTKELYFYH
The settings on record: cited from earlier work.

The next data set concerns NIH3T3 cells. The settings on record: cited from earlier work.
The test system of another data set is SW480 colon cancer cells. As to the kind of experiment: cisplatin-induced death of SW480 colon cancer cells. In kind it is cell-based. The settings on record: cisplatin alone, FIG. 10.
Another data set relates to human liver cells. The settings on record: cited from earlier work.
The subject of data set [1] is SW480 (colon adenocarcinoma). The settings on record: SW480 cell line; cited from earlier work.
Data set [2] has as its system H460 (non-small cell lung cancer). The settings on record: H460 cell line; cited from earlier work.
Data set [3] deals with UT-12 glioblastoma cell line. As to the kind of experiment: survival of UT-12 glioblastoma cell line (MTT/DAPI count). In kind it is cell-based. To be noted: UT-12 glioma cells; FIG. 6. The procedure:
(§1) A variety of cells were exposed to BCNU (also known as carmustine) in the presence of a variety of caspase inhibitors. This alkylating agent is frequently employed in the treatment of cancers of the central nervous system, as well as for treatment of certain lymphomas. The growth of tumor cells and normal human brain precursor cells in chemically-defined medium was assayed under various conditions of alkylating agent and/or caspase inhibitor. Cells were exposed to BCNU at varying dosages, depending upon the outcome of characterization of their sensitivity to BCNU. In general, dosages were employed for which it would be possible to recognize protection from the cytotoxic effects of this alkylating agent, as well as to recognize increased anticancer activity depending on the conditions, of for example, the caspase inhibitor and the activity of this compound.
(§2) After 24 hours, cells were pretreated for 1 hour with caspase inhibitors at a concentration of 20 microM, following exposure to BCNU for 1 hour at concentrations that would kill approximately 50% of the tumor cells, as determined by dose-response experiments. In general, the BCNU concentration applied ranged from 5 microg/ml to 20 microg/ml. Exposure periods were based upon the known clearance rate of BCNU in vivo. […] Percentages of cell survival were normalized to controls. All experiments were performed at least as quadruplicates. […]

Data set [4] deals with UT-9 astrocytoma cell line. As to the kind of experiment: survival of UT-9 astrocytoma cell line (MTT/DAPI count). In kind it is cell-based. The settings on record: BCNU alone at doses equivalent to those used for 1789 and UT-12, FIG. 5. As to the method:
as §1, §2

For the next data set, the system named is normal astrocytes. As to the kind of experiment: BCNU cytotoxicity on normal astrocytes. The settings on record: agent alone, FIG. 8. In kind it is cell-based. As to the method:
as §1

*: point of attachment. Cbz = O=C(OCc1ccccc1)*; CH2F = FC*

Turning to Ac-YVAD-CHO, the “inhibition of Caspase-1” value on Caspase-1 was “strong inhibitor of Caspase-1”. On to c-DEVD-CHO, for which the “inhibition of caspase-3” value at caspase-3 is on record as “inhibits preferentially (but not specifically) caspase-3”.

As for `COc1ccc(O)c(C(C)(C)C)c1` [BHA, butylated hydroxyanisole], in the data set on NIH3T3 cells (pretreatment, Luschen et al.), the “protection from cytotoxicity of tumor necrosis factor plus caspase-8 inhibition” value is “protected NIH3T3 cells from cytotoxicity induced by the combination of tumor necrosis factor and caspase-8 inhibition”. In the case of `N.N.[Cl][Pt][Cl]` [cisplatin, Cisplatin], in the data set with SW480 colon cancer cells, the “cell death / reduction in number of cells” value was “cisplatin-induced death”.

Regarding Cbz-LEHD-CH2F, in the data set with human liver cells, the “protection from TRAIL-associated toxicity” value is listed as “effectively protects liver cells from TRAIL-associated toxicity”. Moreover, the “protection from TRAIL induced death” value in data set [1] and in data set [2] was “did not protect” throughout. As for `O=C1O[C@H]([C@@H](O)CO)C(O)=C1O` [Vitamin C, ascoribic acid], the “cell killing by the full combination (caspase 9 and pan-caspase inhibition, BCNU, Vitamin C)” value in data set [3] is “kills all of the UT-12 glioma cells”. Turning to `O=NN(CCCl)C(=O)NCCCl` [BCNU, carmustine], the “reduction in cell number” value in data set [4] is “causes only a minor reduction in cell number”. The killing of astrocytes entry in the data set on normal astrocytes was “Astrocytes were killed by BCNU”. Turning to “TRAIL: tumor necrosis factor-related apoptosis-inducing ligand”, the “induction of cell death” value in the data set on human liver cells is listed as “induces cell death in human liver cells by a caspase-9 dependent mechanism”. zVAD.fmk: in the data set with NIH3T3 cells (Luschen et al, 2000), the “sensitization to the action of TNF” value was “Sensitization to the action of TNF”.
